# Legend:
# [1] = Inhibition of HCV 1b NS5B RNA dependent RNA polymerase by scintillation proximity assay; set-up: species or system Hepacivirus hominis
# Hepatitis C virus = test: Antiviral activity against Hepatitis C virus genotype 1b infected in human Huh-7 cells assessed as inhibition of viral replication after 72 hrs; format: functional, organism-based, Hepacivirus hominis; conditions: Huh-7, 72 h
# [2] = Half life in human liver microsomes at 10 uM
# [3] = Permeability across apical to basolateral side in human Caco2 cells; conditions: Caco-2
# [4] = Selectivity ratio for polio virus RNA-dependent RNA polymerase to HCV 1b NS5B RNA dependent RNA polymerase
# [5] = Selectivity ratio for mammalian DNA-dependent RNA polymerase II to HCV 1b NS5B RNA dependent RNA polymerase
# physchem = conditions: phosphate buffer, pH 7.2
Structure (SMILES),IC50 [1] [nM],EC50 (Hepatitis C virus) [nM],half-life at 10 µM ([2]; liver microsomes) [min],Papp A→B [3] [×10⁻⁶ cm/s],Ratio [4],Ratio [5],solubility thermodynamic at 24 h (physchem) [µg/mL],half-life at 10 µM ([2]; microsomes) [min]
Cn1c(C(=O)O)cc2cc(NC(=O)C(C)(C)NC(=O)c3ccc4c(C5CCCCC5)c(-c5ccccn5)n(C)c4c3)ccc21,75,143,36,0.7,> 150,> 150,945,–
CCN1CC[C@@](NC(=O)c2ccc3c(C4CCCCC4)c(-c4ccccn4)n(C)c3c2)(C(=O)Nc2ccc(/C=C/C(=O)O)cc2)C1,23,50,61,5.6,> 150,> 150,–,–
Cn1c(C(N)=O)cc2cc(NC(=O)C(C)(C)NC(=O)c3ccc4c(C5CCCCC5)c(-c5ccccn5)n(C)c4c3)ccc21,165,97,21,–,> 150,> 150,< 0.1,–
Cn1c(-c2ccccn2)c(C2CCCCC2)c2ccc(C(=O)NC(C)(C)C(=O)Nc3ccc4sc(C(=O)O)cc4c3)cc21,23,88,49,0.4,> 150,> 150,468,–
Cc1c(C(=O)O)sc2ccc(NC(=O)C3(NC(=O)c4ccc5c(C6CCCCC6)c(-c6ccccn6)n(C)c5c4)CCN(C)CC3)cc12,27,58,185,0.8,> 150,> 150,1,–
Cn1c(-c2ccccn2)c(C2CCCCC2)c2ccc(C(=O)N[C@]3(C(=O)Nc4ccc(/C=C/C(=O)O)cc4)CCNC3)cc21,55,194,191,0.1,> 150,> 150,19,–
Cn1c(-c2ccccn2)c(C2CCCCC2)c2ccc(C(=O)NC(C)(C)C(=O)Nc3ccc(-c4nc(C(=O)O)cs4)cc3)cc21,154,420,55,< 0.1,> 150,> 150,662,–
CC(C)(NC(=O)c1ccc2c(c1)nc(-c1ccoc1)n2C1CCCCC1)C(=O)Nc1ccc(/C=C/C(=O)O)cc1,40,–,–,–,–,–,–,–
Cn1c(-c2ccccn2)c(C2CCCCC2)c2ccc(C(=O)NC(C)(C)C(=O)Nc3ccc(NC(=O)C(=O)O)cc3)cc21,34,2500,–,–,> 150,> 150,–,–
Cn1c(-c2ccccn2)c(C2CCCCC2)c2ccc(C(=O)N[C@]3(C(=O)Nc4ccc(/C=C/C(=O)O)cc4)CCCNC3)cc21,40,220,–,–,> 150,> 150,–,–
Cc1c(C(=O)O)sc2ccc(NC(=O)[C@]3(NC(=O)c4ccc5c(C6CCCCC6)c(-c6ccccn6)n(C)c5c4)CCCNC3)cc12,35,60,–,–,–,–,–,93
Cc1c(C(=O)O)sc2ccc(NC(=O)C3(NC(=O)c4ccc5c(C6CCCCC6)c(-c6ccccn6)n(C)c5c4)CCC3)cc12,122,68,79,0.6,> 150,> 150,112,–
Cn1c(-c2ccccn2)c(C2CCCCC2)c2ccc(C(=O)NC3(C(=O)Nc4ccc(/C=C/C(=O)O)cc4)CCCCC3)cc21,194,129,61,–,> 150,> 150,5,–
CC(=O)N1CCCC(NC(=O)c2ccc3c(C4CCCCC4)c(-c4ccccn4)n(C)c3c2)(C(=O)Nc2ccc(/C=C/C(=O)O)cc2)C1 (racemic),230,230,256,5.5,> 150,> 150,24,–
Cn1c(-c2ccccn2)c(C2CCCCC2)c2ccc(C(=O)NC(C)(C)C(=O)Nc3ccc(-c4ccc(C(=O)O)o4)cc3)cc21,152,145,43,0.2,> 150,> 150,> 564,–
Cn1c(-c2ccccn2)c(C2CCCCC2)c2ccc(C(=O)NC(C)(C)C(=O)Nc3ccc(NC(=O)C(N)=O)cc3)cc21,124,139,25,12.9,> 150,> 150,1,–
Cn1c(-c2ccccn2)c(C2CCCCC2)c2ccc(C(=O)N[C@@]3(C(=O)Nc4ccc(-c5cncnc5)cc4)CCNC3)cc21,64,130,64,< 0.1,> 150,> 150,9,–
Cn1c(-c2ccccn2)c(C2CCCCC2)c2ccc(C(=O)NC(C)(C)C(=O)Nc3ccc(-c4nc(C(N)=O)cs4)cc3)cc21,317,150,16,–,> 150,> 150,< 0.1,–
Cn1c(-c2ccccn2)c(C2CCCCC2)c2ccc(C(=O)NC3(C(=O)Nc4ccc(S(N)(=O)=O)cc4)CCC3)cc21,312,350,15,–,> 150,> 150,< 0.1,–
Cn1c(-c2ccccn2)c(C2CCCCC2)c2ccc(C(=O)NC3(C(=O)Nc4ccc(/C=C/C(=O)O)cc4)CCNCC3)cc21,13,2000,–,–,> 150,> 150,–,–
CN1CCC(NC(=O)c2ccc3c(C4CCCCC4)c(-c4ccccn4)n(C)c3c2)(C(=O)Nc2ccc3sc(C(=O)O)cc3c2)CC1,17,220,–,–,> 150,> 150,–,–
Cc1c(C(N)=O)sc2ccc(NC(=O)C3(NC(=O)c4ccc5c(C6CCCCC6)c(-c6ccccn6)n(C)c5c4)CCC3)cc12,86,76,71,–,> 150,> 150,–,–
CN1CC[C@](NC(=O)c2ccc3c(C4CCCCC4)c(-c4ccccn4)n(C)c3c2)(C(=O)Nc2ccc(/C=C/C(=O)O)cc2)C1,66,78,–,7.8,> 150,> 150,20,46
Cn1c(-c2ccccn2)c(C2CCCCC2)c2ccc(C(=O)NC(C)(C)C(=O)Nc3ccc(-c4ccc(C(N)=O)o4)cc3)cc21,330,96,19,–,> 150,> 150,< 0.1,–
Cn1c(-c2ccccn2)c(C2CCCCC2)c2ccc(C(=O)NC3(C(=O)Nc4ccc(-c5cnc(N)nc5)cc4)CCC3)cc21,745,180,–,–,> 150,> 150,0.9,–
Cn1c(C(=O)O)cc2cc(NC(=O)[C@]3(NC(=O)c4ccc5c(C6CCCCC6)c(-c6ccccn6)n(C)c5c4)CCCNC3)ccc21,44,245,28,< 0.1,> 150,> 150,14,–
CC(=O)N1CC[C@@](NC(=O)c2ccc3c(C4CCCCC4)c(-c4ccccn4)n(C)c3c2)(C(=O)Nc2ccc(/C=C/C(=O)O)cc2)C1,24,212,–,–,> 150,> 150,–,–
CN1CCCC(NC(=O)c2ccc3c(C4CCCCC4)c(-c4ccccn4)n(C)c3c2)(C(=O)Nc2ccc(/C=C/C(=O)O)cc2)C1 (racemic),43,66,–,–,> 150,> 150,–,–
